Series [1] in a line: Hemolysis of human erythrocytes. Type of series: cell-based. Conditions: 200 μM compound, 1 h, 37 °C. On the procedure: (§1) The human erythrocyte concentrate was prepared according to the kit manual from the Biomaterial Hemolytic Assay Kit (Hemoscan). After the human erythrocytes had been washed and diluted with manufacture buffer, 100 μL of erythrocytes (10%) were added into 100 μL of various concentrations of compounds in PBS. 1% of Triton X (1%) was the positive control, while PBS was the negative control. The erythrocytes were then gently mixed with the TPA compounds and further incubated for an hour at 37 °C. After that, the erythrocytes were centrifuged (1000 rpm, 5 min), and 20 μL of supernatant was added to 180 μL of PBS in a 96-well plate. The optical density at 380, 415, and 450 nm was measured by a plate reader. The final OD value of the compounds was calculated as (2 × OD415) – (OD450 + OD380) where OD380, OD415, and OD450 are the optical density of the solution at 380, 415, and 450 nm, respectively. The hemolysis rates of the compounds were calculated as (ODcompound – ODPBS)/(ODTritonX – ODPBS) × 100% where ODcompound, ODPBS, and ODTritonX are the final OD values of the erythrocytes mixed with TPA compounds, PBS, and 1% Triton X, respectively. The experiment was performed in triplicate.

For series [2], the system named is human erythrocytes. As to the kind of experiment: Hemolysis of human erythrocytes. Type of series: cell-based. On the procedure: as §1
Series [3] concerns S. aureus. As to the kind of experiment: Resistance development assay on S. aureus. Type of series: cell-based, Staphylococcus aureus. The method, then:
The MICs for TPA-1 and norfloxacin against S. aureus were first determined by the above-mentioned method. The wells with 0.5 × MIC of compounds were transferred to 1 mL fresh MHB and incubated under darkness for 3–4 h at 37 °C. The bacteria were then used to conduct a MIC assay again. The experiments were repeated for 20 days. The fold changes in the MIC values of the compounds were recorded. The experiments were performed in duplicate.

The test system of series [4] is S. aureus biofilm formation. Kind of series: S. aureus biofilm inhibition assay in the dark (crystal violet). It is filed as cell-based. Conditions: Staphylococcus aureus, light or radiation study, without light irradiation. The method, then: For biofilm inhibition assay, overnight culture of S. aureus in TSB was diluted to 1 × 10^7 CFU/mL in TSB (with 1% glucose). Ten μL of the diluted bacteria were added to a 96-well plate containing 90 μL of serial diluted TPA-1 in TSB (with 1% glucose). After overnight incubation at 37 °C in darkness, the medium in the well was removed. The remaining biofilm was washed with 200 μL of PBS (3 times) and fixed with 100 μL of methanol for 10 min. The well was left for drying. Then, 150 μL of 0.1% crystal violet was added to the wells and stained for 10 min. The crystal violet was removed, and the wells were washed with 200 μL of PBS (3 times). After drying, the remaining crystal violet was dissolved in 100 μL of 95% ethanol with gentle shaking, and the absorbance at 570 nm was recorded. The biofilm inhibition % was calculated as [1 – (ODTPA-1 – ODblank)/(ODmedium – ODblank)] × 100% where ODTPA-1, ODmedium and ODblank were the absorbances of the wells with bacteria treated TPA-1, with bacteria without treatment and with medium only, respectively. The experiment was performed in triplicate.

In series [5] the test system is planktonic P. aeruginosa. Kind of series: Photodynamic eradication of planktonic bacteria. It is filed as cell-based, Pseudomonas aeruginosa. Conditions: 2 μM, 600 nm (60 mW/cm^2). The method, then: For planktonic bacteria, an overnight culture of S. aureus or P. aeruginosa was diluted 100 times in TSB and grown to OD = 1. The bacteria cultures were then diluted to […] in PBS. TPA-1 (2 μM) was added to the diluted cultures and incubated under darkness for 20 min at 30 °C. Bacterial cultures of 200 μL were transferred to the wells of a 96-well plate. The plate was irradiated by 600 nm light (60 mW/cm^2) for 30 and 45 min. Then, the bacterial cultures were serially diluted, and the number of viable bacteria was counted using the plate counting method.

Some results are limits rather than exact numbers.

By HC50 is commonly meant the concentration that lyses half of the red blood cells. The MIC is the lowest concentration that inhibits growth of the organism. Usually inhibition stands for how much of the control response was suppressed. Read a high inhibition as a strong effect.

With `C#CCC[n+]1c(/C=C/c2ccc(-c3ccc(N(c4ccc(OCCC[N+](C)(C)C)cc4)c4ccc(OCCC[N+](C)(C)C)cc4)cc3)s2)sc2ccccc21.[Br-].[Br-].[Br-]` [TPA-1], in series [1], the hemolysis at 1 h, 200 µM was under 2%. Further, the HC50 in series [2] was over 200 µM. In series [3] (20 days of passages at 0.5 × MIC), the “increase of MIC against S. aureus after treatment for 20 days” value worked out at 2 fold. Further, in series [3] (Staphylococcus aureus, read-out: initial MIC against S. aureus in resistance development assay), the MIC stood at 3.12 µM. Further, the inhibition at 3.125 µM in series [4] (1 × MIC (3.125 μM)) was over 90%. Also, in series [4] (≥ 6.25 μM), the inhibition at 6.25 µM was over 99.9%. In addition, the “planktonic P. aeruginosa eradicated” value in series [5] (30 min) is 99.96% ± 0.03%; in series [5] (45 min) it was over 99.99%. Also, the “planktonic P. aeruginosa log CFU/mL reduction” value in series [5] (30 min) is 3.4 ± 0.2 log CFU/mL; in series [5] (45 min), over 5 log CFU/mL.

The values are drawn from article PMC12035805, “A Water-Soluble Aggregation-Induced Emission Photosensitizer with Intrinsic Antibacterial Activity as an Antiplanktonic and Antibiofilm Therapeutic Agent” (Journal of Medicinal Chemistry, 2025).
